Measurements published in patent US11026972B2, “Methods for generating macrophages with enhanced cancer phagocytosis” (Georgia State University Research Foundation, Inc., priority 2016, dated 2021).

Experiments:
[1] = system: SIRPα^−/− and CD47^−/− mice; assay: Acute anemia and splenomegaly in mice deficient of CD47-SIRPα-mediated inhibition under inflammatory conditions; format: in vivo, mouse
From the text: FIGS. 1A-1K illustrate our assessment of acute anemia in mice deficient of CD47-SIRPα-mediated inhibition under inflammatory conditions. FIG. 1A includes a schematic drawing of a wild type (WT) and targeted allele of SIRPα (“SIRPα”) and data related to the generation of SIRPα “knock out” (KO) mice. […] Western blot (WB) analysis confirmed the depletion of SIRPα (˜120 kDa) protein in bone marrow leukocytes from SIRPα^−/− mice. FIG. 1B includes a photograph of intestinal tissue and a line graph charting the change in body weight of mice in which colitis had been induced by treatment with 1% or 2% DSS. […] FIGS. 1C and 1D include data related to acute anemia and splenomegaly developed in SIRPα^−/− mice with colitis. WT mice and SIRPα^−/− mice treated with DSS (2% DSS for WT and 1% DSS for SIRPα^−/−) for 10 days were analyzed for the presence of […] (FIG. 1C) and the content of hemoglobin in peripheral blood (FIG. 1D). FIG. 1E includes a panel of photomicrographs in which hematoxylin and eosin (H&E) was used to stain sections of spleens from WT and SIRPα^−/− mice treated with 2% and 1% DSS for 10 days. The bar graph of FIG. 1E illustrates the hemoglobin content in the spleens of WT and SIRPα^−/− mice treated with water or DSS. FIG. 1F is a pair of line graphs showing the time course over which anemia developed in SIRPα^−/− mice when colitis was induced with DSS and the levels of IL-17 in the serum over that same period of time. FIG. 1G is a diagram showing that IL-17 neutralization ameliorates anemia and splenomegaly in SIRPα^−/− mice with colitis. An anti-IL-17 antibody (10 μg, i.v.) was given on days 6 and 8 (arrows) during DSS-induction of colitis. FIG. 1H is a diagram showing that IL-17-containing colitic serum induces acute anemia in SIRPα^−/− mice. Serum samples collected from healthy (Ctl.) and colitic WT mice (2% DSS, 10 d) were administered to healthy SIRPα^−/− mice (i.v., 3×, arrows) with or without an anti-IL-17 antibody. FIGS. 1I and 1J are illustrative graphs showing that IL-17 directly induces acute anemia and splenomegaly in SIRPα^−/− mice and Cd47^−/− mice. Healthy mice were given recombinant IL-17 (10 μg/kg, i.v.) on days 1 and 3 (arrows, FIG. 1J); anemia and splenomegaly were analyzed on day 5 (FIG. 1I) or in a time course manner (FIG. 1J). FIG. 1K includes diagrams showing that acute anemia and splenomegaly in SIRPα^−/− and Cd47^−/− mice under zymosan-peritonitis (3×, every other day), IL-6 administration ([…], i.v.), LPS (0.25 mg/kg, i.p.), and CFA (1×, s.c.) administrations. Error bars are ±SEM **P<0.01, ***P<0.001 vs. control or the beginning time point. Data presented in each panel represent at least three independent experiments with n≥4, if applicable.
Hemoglobin assay: To assay blood hemoglobin, 10 μl of whole blood were obtained from the tail vein followed by lysis in 1 ml distilled water. After centrifugation (13,000 rpm, 30 min), the hemoglobin-containing supernatants were collected and measured for the optical density at the wavelength of 540 nm.
Animal inflammation models: To induce peritonitis, mice (6-8 wk, 20-22 g) were intraperitoneally injected with 0.5 mg zymosan A (Sigma) in 0.5 ml sterile PBS followed by euthanasia at 2, 4, 6 and 8 hours. […] The colitic condition was then assessed by observing diarrhea, measuring body weight loss, increases of inflammatory cytokines, the shortage of the large intestine and intestinal tissue analyses (after euthanasia). […]

Syk = Syk phosphorylation at Y519/520 in PEMs; format: cell-based, mouse
Description: FIGS. 5A-5H include data related to our experiments on the role of Syk in phagocytic activation. […] PEMs were treated with LPS and cytokines in the presence of various inhibitors. After washing, inhibitor-free macrophages were tested for phagocytosis toward RBCs. […] PEMs treated with LPS and activating cytokines, or together with IL-10, were tested for total Syk and phosphorylated Syk (Syk^pY, specific at Y519/520). FIG. 5D describes PMA-induced macrophages phagocytosis toward RBCs. WT and SIRPα^−/− PEMs were treated with PMA (37° C., 30 min) before testing phagocytosis toward RBCs. FIG. 5E is a schematic depiction of PKC-Syk-mediated macrophage phagocytic activation toward self. […] Left: Inhibition of Syk by piceatannol and R406 prevented PMA-induced phagocytic activation. […] Error bars are ±SEM. ***P<0.001 vs. the respective controls. […] LPS-treated WT PEMs were further briefly treated with pervanadate before testing for phagocytosis toward RBCs. Error bars are ±SEM. ***P<0.001 vs. the respective controls. […] Data presented in each panel represent at least three independent experiments with n≥4, if applicable.
Multiple pharmacological inhibitors were tested for their effects on LPS and cytokine-induced activation of macrophage phagocytosis toward self. […] For example, inhibition of JAKs blocked IL-6 and IL-17, but not LPS and TNFα, for activation of PEM phagocytosis. […]

SIRPα = conditions: following LPS stimulation; cited from earlier work

| Molecule | anemia and splenomegaly ([1]; SIRPα^−/− and CD47^−/− mice, zymosan 3 times every other day, IL-6 2×10 μg/kg i.v., LPS 0.25 mg/kg i.p., CFA s.c.) | Syk phosphorylation (Syk^PY, Y519/520) (Syk) | SIRPα expression in macrophages (SIRPα) | acute anemia and splenomegaly ([1]; CD47^−/− mice, IL-17 injection) | acute anemia and splenomegaly ([1]; healthy SIRPα^−/− mice, 2×10 μg/kg, i.v.) |
| --- | --- | --- | --- | --- | --- |
| lipopolysaccharide [LPS] | induced anemia and splenomegaly | increases in Syk^PY | decreased | – | – |
| IL-17: recombinant murine cytokine interleukin IL-17 (also known as IL-17A), PeproTech (protein, UniProt Q62386 26-158, looked up) Interleukin-17A: AAIIPQSSACPNTEAKDFLQNVKVNLKVFNSLGAKVSSRRPSDYLNRSTSPWTLHRNEDPDRYPSVIWEAQCRHQRCVNAEGKLDHHMNSVLIQQEILVLKREPESCPFTFRVEKMLVGVGCTCVASIVRQAA | – | – | – | induced acute anemia and splenomegaly | directly induced acute anemia and splenomegaly |
